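Values below derive from 48-hour exposures of cells grown in 96-well plates, with endpoints linearly interpolated between the two concentrations bracketing the appropriate inhibition level. Here, GI50 denotes the concentration required for 50% inhibition of growth.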 Activity calls are given as the source filed them. No stated cut-off is given here; in the data, active = GI50 up to about 1.1 µM and inactive = higher.
Key:
Assay in all cases: NCI anticancer screen, dose series, 48 h
[1] = system: NCI-H226
[2] = system: SNB-75
[3] = system: UO-31
[4] = system: SK-MEL-28
[5] = system: K562
[6] = system: RXF 393
[7] = system: EKVX
[8] = system: PC-3
[9] = system: MDA-MB-231
[10] = system: CAKI-1
[11] = system: NCI/ADR-RES
[12] = system: CCRF-CEM
[13] = system: HOP-62
[14] = system: Malme-3M
[15] = system: SK-MEL-2
[16] = system: MDA-MB-435
[17] = system: MOLT-4
[18] = system: Hs-578T
[19] = system: A498
[20] = system: SR

With C=CCOC(=O)N1c2ccc(O)cc2[C@@]23O[C@@]24[C@@H]1C#C/C=C\C#C[C@]3(O)C(OC)(OC)C[C@@H]4C the GI50 [1] was 24.9 µM (inactive), the GI50 [2] was 12.1 µM (inactive) and the GI50 [3] was 37.2 µM (inactive). For the same compound, the GI50 [4] was 45.1 µM (inactive), the GI50 [5] was 34.8 µM (inactive) and the GI50 [6] was 41.7 µM (inactive). The GI50 [7] was 53.2 µM (inactive), the GI50 [8] was 24 µM (inactive) and the GI50 [9] was 23.6 µM (inactive). The GI50 [10] was 53.6 µM (inactive), the GI50 [11] was 32.3 µM (inactive) and the GI50 [12] was 23.6 µM (inactive). The GI50 [13] was 34.6 µM (inactive), the GI50 [14] was 26.8 µM (inactive) and the GI50 [15] was 24.2 µM (inactive). For the same compound, the GI50 [16] was 15.1 µM (inactive), the GI50 [17] was 16.3 µM (inactive) and the GI50 [18] was 37.8 µM (inactive). For the same compound, the GI50 [19] was 25.5 µM (inactive) and the GI50 [20] was 24.2 µM (inactive).
With CC1OC(OC2C(O)COC(OC3C(C)OC(OC4C(OC(=O)[C@]56CCC(C)(C)C[C@@H]5C5=CCC7[C@@]8(C)C[C@H](O)[C@H](OC9OC(CO)C(O)C(OC%10OC(CO)C(O)C(O)C%10O)C9O)[C@@](C)(CO)[C@@H]8CC[C@@]7(C)[C@]5(C)CC6)OCC(O)C4O)C(O)C3O)C2O)C(O)C(O)C1O (stereo not given in full) the GI50 [1] was 23.1 µM (inactive), the GI50 [2] was 18.9 µM (inactive) and the GI50 [3] was 4.17 µM (inactive). For the same compound, the GI50 [4] was 8.75 µM (inactive), the GI50 [5] was 31.2 µM (inactive) and the GI50 [6] was 12.1 µM (inactive). For the same compound, the GI50 [7] was 12.8 µM (inactive), the GI50 [8] was 11 µM (inactive) and the GI50 [9] was 16.3 µM (inactive). The GI50 [10] was 3.19 µM (inactive), the GI50 [11] was 14.5 µM (inactive) and the GI50 [12] was 14.7 µM (inactive). The GI50 [13] was 14.3 µM (inactive), the GI50 [14] was 13.8 µM (inactive) and the GI50 [15] was 19.8 µM (inactive). For the same compound, the GI50 [16] was 20.9 µM (inactive), the GI50 [17] was 15.5 µM (inactive) and the GI50 [18] was 19.5 µM (inactive). For the same compound, the GI50 [19] was 11.8 µM (inactive) and the GI50 [20] was 13.1 µM (inactive).
With S=C1N=C(Cl)/C(=C\c2ccccc2)N1 the GI50 [1] was > 100 µM (inactive), the GI50 [2] was > 100 µM (inactive) and the GI50 [3] was > 100 µM (inactive). The GI50 [4] was > 100 µM (inactive), the GI50 [5] was > 100 µM (inactive) and the GI50 [6] was > 100 µM (inactive). For the same compound, the GI50 [7] was > 100 µM (inactive), the GI50 [8] was > 100 µM (inactive) and the GI50 [9] was > 100 µM (inactive). For the same compound, the GI50 [10] was > 100 µM (inactive), the GI50 [11] was > 100 µM (inactive) and the GI50 [12] was > 31.6 µM (inactive). The GI50 [13] was > 100 µM (inactive), the GI50 [14] was > 83.6 µM (inactive) and the GI50 [15] was > 100 µM (inactive). For the same compound, the GI50 [16] was > 100 µM (inactive), the GI50 [17] was > 100 µM (inactive) and the GI50 [18] was > 100 µM (inactive). The GI50 [19] was > 100 µM (inactive) and the GI50 [20] was > 100 µM (inactive).
For Cc1cc(C)nc(NS(=O)(=O)c2ccc(Nc3c4ccccc4nc4ccc(C(=O)Nc5ccc(S(N)(=O)=O)cc5)cc34)cc2)n1, the GI50 [1] was > 100 µM (inactive), the GI50 [2] was > 100 µM (inactive) and the GI50 [3] was > 100 µM (inactive). For the same compound, the GI50 [4] was > 100 µM (inactive), the GI50 [5] was 66.4 µM (inactive) and the GI50 [6] was > 100 µM (inactive). The GI50 [7] was > 100 µM (inactive), the GI50 [8] was > 100 µM (inactive) and the GI50 [9] was 20 µM (inactive). For the same compound, the GI50 [10] was > 100 µM (inactive), the GI50 [11] was 69.3 µM (inactive) and the GI50 [12] was 63.7 µM (inactive). The GI50 [13] was > 100 µM (inactive), the GI50 [14] was > 100 µM (inactive) and the GI50 [15] was > 100 µM (inactive). The GI50 [16] was > 100 µM (inactive), the GI50 [17] was > 100 µM (inactive) and the GI50 [18] was > 100 µM (inactive). The GI50 [19] was > 100 µM (inactive) and the GI50 [20] was > 100 µM (inactive).
C=C1C[C@@H](O)[C@@H](Br)C(C)(C)[C@]12CCC(C)(Cl)C(Br)C2 (stereo not given in full) was tested, and the GI50 [1] was 20.9 µM (inactive), the GI50 [2] was 18.9 µM (inactive) and the GI50 [3] was 59 µM (inactive). The GI50 [4] was 55.7 µM (inactive), the GI50 [5] was 53.5 µM (inactive) and the GI50 [6] was 28.6 µM (inactive). For the same compound, the GI50 [7] was 4.35 µM (inactive), the GI50 [8] was 0.431 µM (active) and the GI50 [9] was 40.7 µM (inactive). For the same compound, the GI50 [10] was 34.8 µM (inactive), the GI50 [11] was 21.4 µM (inactive) and the GI50 [12] was 41.6 µM (inactive). For the same compound, the GI50 [13] was 19.1 µM (inactive), the GI50 [14] was 22 µM (inactive) and the GI50 [15] was 15.1 µM (inactive). The GI50 [16] was 23.9 µM (inactive), the GI50 [17] was 36.4 µM (inactive) and the GI50 [18] was 27.4 µM (inactive). The GI50 [19] was > 46.9 µM (inactive) and the GI50 [20] was 40.8 µM (inactive).
With Cc1cc(N(CCCl)CCCl)ccc1/C=N/NC(=O)Cc1cc(=O)oc2cc(O)ccc12 the GI50 [1] was 15.7 µM (inactive), the GI50 [2] was 28.6 µM (inactive) and the GI50 [3] was 22.9 µM (inactive). For the same compound, the GI50 [4] was 12.6 µM (inactive), the GI50 [5] was 9.18 µM (inactive) and the GI50 [6] was 16.6 µM (inactive). The GI50 [7] was 20.4 µM (inactive), the GI50 [8] was 11.9 µM (inactive) and the GI50 [9] was 30.6 µM (inactive). For the same compound, the GI50 [10] was 6.4 µM (inactive), the GI50 [11] was 37.6 µM (inactive) and the GI50 [12] was 6.38 µM (inactive). For the same compound, the GI50 [13] was 19 µM (inactive), the GI50 [14] was 12.6 µM (inactive) and the GI50 [15] was 32.3 µM (inactive). The GI50 [16] was 11.2 µM (inactive), the GI50 [17] was 5.6 µM (inactive) and the GI50 [18] was 17.2 µM (inactive). The GI50 [19] was 13.7 µM (inactive) and the GI50 [20] was 7.08 µM (inactive).
For CC1OC(OC2C(O)COC(OC3C(C)OC(OC4C(OC(=O)[C@]56CCC(C)(C)C[C@@H]5C5=CCC7[C@@]8(C)C[C@H](O)[C@H](OC9OC(CO)C(O)C(OC%10OC(CO)C(O)C(O)C%10O)C9O)[C@@](C)(CO)[C@@H]8CC[C@@]7(C)[C@]5(C)CC6)OCC(O)C4O)C(O)C3OC3OCC(O)C(O)C3O)C2O)C(O)C(O)C1O (stereo not given in full), the GI50 [1] was 7.82 µM (inactive), the GI50 [2] was 16 µM (inactive) and the GI50 [3] was 3.15 µM (inactive). The GI50 [4] was 2.27 µM (inactive), the GI50 [5] was 16.7 µM (inactive) and the GI50 [6] was 5.55 µM (inactive). The GI50 [7] was 7.05 µM (inactive), the GI50 [8] was 4.36 µM (inactive) and the GI50 [9] was 3.12 µM (inactive). For the same compound, the GI50 [10] was 4.39 µM (inactive), the GI50 [11] was 10.9 µM (inactive) and the GI50 [12] was 10.4 µM (inactive). The GI50 [13] was 6.76 µM (inactive), the GI50 [14] was 10.1 µM (inactive) and the GI50 [15] was 3.47 µM (inactive). For the same compound, the GI50 [16] was 2.66 µM (inactive), the GI50 [17] was 16.6 µM (inactive) and the GI50 [18] was 15.2 µM (inactive). For the same compound, the GI50 [19] was 2.15 µM (inactive) and the GI50 [20] was 7.08 µM (inactive).
For Cn1c(=O)cc(NNc2ccccc2)[nH]c1=O, the GI50 [1] was > 100 µM (inactive), the GI50 [2] was > 100 µM (inactive) and the GI50 [3] was 83.2 µM (inactive). For the same compound, the GI50 [4] was 28.6 µM (inactive), the GI50 [5] was 38.2 µM (inactive) and the GI50 [6] was 18 µM (inactive). For the same compound, the GI50 [7] was 36.1 µM (inactive), the GI50 [8] was > 100 µM (inactive) and the GI50 [9] was 18.7 µM (inactive). For the same compound, the GI50 [10] was 15.6 µM (inactive), the GI50 [11] was > 100 µM (inactive) and the GI50 [12] was 34.1 µM (inactive). For the same compound, the GI50 [13] was > 100 µM (inactive), the GI50 [14] was 19.9 µM (inactive) and the GI50 [15] was 36 µM (inactive). The GI50 [16] was 28.2 µM (inactive), the GI50 [17] was 37.9 µM (inactive) and the GI50 [18] was > 100 µM (inactive). The GI50 [19] was > 100 µM (inactive) and the GI50 [20] was 10.7 µM (inactive).
With CC(CC[C@@]1(O)OC2C[C@H]3[C@@H]4CC[C@H]5CC(OC6OC(CO)C(OC7OC(CO)C(O)C(OC8OCC(O)C(O)C8O)C7OC7OC(CO)C(O)C(O)C7O)C(O)C6O)[C@H](O)CC5(C)[C@H]4CCC3(C)C2[C@@H]1C)COC1OC(CO)C(O)C(O)C1O (stereo not given in full) the GI50 [1] was 13.5 µM (inactive), the GI50 [2] was 0.64 µM (active) and the GI50 [3] was 6.84 µM (inactive). The GI50 [4] was 29.2 µM (inactive), the GI50 [5] was 16.6 µM (inactive) and the GI50 [6] was 4.28 µM (inactive). The GI50 [7] was 2.38 µM (inactive), the GI50 [8] was 10.3 µM (inactive) and the GI50 [9] was 25.9 µM (inactive). The GI50 [10] was 4.76 µM (inactive), the GI50 [11] was 6.65 µM (inactive) and the GI50 [12] was 3.26 µM (inactive). For the same compound, the GI50 [13] was 4.15 µM (inactive), the GI50 [14] was 15.2 µM (inactive) and the GI50 [15] was 13.4 µM (inactive). For the same compound, the GI50 [16] was 14.8 µM (inactive), the GI50 [17] was 2.45 µM (inactive) and the GI50 [18] was 4.73 µM (inactive). The GI50 [19] was 18.9 µM (inactive) and the GI50 [20] was 7.85 µM (inactive).
In the case of CCOC(=O)N1C/C(=C\c2ccccc2)C(=O)/C(=C/c2ccccc2)C1, the GI50 [1] is reported as 4.56 µM (inactive), the GI50 [2] is reported as 6.97 µM (inactive) and the GI50 [3] is reported as 5.85 µM (inactive). The GI50 [4] was 2.39 µM (inactive), the GI50 [5] was 1.44 µM (inactive) and the GI50 [6] was 4.01 µM (inactive). The GI50 [7] was 10.6 µM (inactive), the GI50 [8] was 2.16 µM (inactive) and the GI50 [9] was 2.24 µM (inactive). For the same compound, the GI50 [10] was 2.22 µM (inactive), the GI50 [11] was 9.12 µM (inactive) and the GI50 [12] was 1.51 µM (inactive). For the same compound, the GI50 [13] was 4.41 µM (inactive), the GI50 [14] was 7.36 µM (inactive) and the GI50 [15] was 6.7 µM (inactive). The GI50 [16] was 2.48 µM (inactive), the GI50 [17] was 1.96 µM (inactive) and the GI50 [18] was 2.4 µM (inactive). For the same compound, the GI50 [19] was 18 µM (inactive) and the GI50 [20] was 0.873 µM (active).
